The values below come from PubChem BioAssay (NCI).

“And” between values parts separate entries of the source, which are not always exact repeats. Equal values may be shown once.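 Interpolation was linear, between the two tested concentrations surrounding the appropriate level; five concentrations were tested over 48 hours in 96-well plates. TGI: concentration producing complete growth inhibition.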 Some results are limits rather than exact numbers.

Among the test systems are CAKI-1 renal; HOP-62 NSCLC; NCI-H226 lung; RXF 393 renal; SF-295 CNS; SK-MEL-28 melanoma; SK-MEL-5 melanoma; MDA-MB-435; MOLT-4 leukemia; SK-OV-3 ovarian.
Common to all, as to experiment: NCI tumour cell line growth inhibition, 48 h

Take `CC(=O)Oc1ccc2cc(Oc3ccc(Cl)cc3)c(=O)oc2c1`: the TGI in the assay with CAKI-1 renal is above 100 µM; with HOP-62 NSCLC it was above 100 µM; in the assay on NCI-H226 lung, above 100 µM; in the assay with RXF 393 renal it was above 100 µM; in the assay with SF-295 CNS it was 99 µM; with SK-MEL-28 melanoma, above 100 µM. For the same compound, the TGI in the assay with SK-MEL-5 melanoma came to 41.9 µM.

As to `O=C1/C(=C/c2ccccc2S)N=C(c2ccccc2)N1c1ccc2c(c1)Sc1cc(N3C(=O)/C(=C/c4ccccc4S)N=C3c3ccccc3)ccc1N2`, the TGI with CAKI-1 renal was determined as 41.7 µM; in the assay with HOP-62 NSCLC, 72.7 µM; with MDA-MB-435, 48.9 µM; with MOLT-4 leukemia, 39.7 µM; in the assay with SF-295 CNS, 39.9 µM; in the assay on SK-MEL-28 melanoma, 44.5 µM. For the same compound, the TGI with SK-MEL-5 melanoma is 30.7 µM; with SK-OV-3 ovarian, 33.8 µM.

On to `Cc1ccc(Nc2nc(=O)[nH]c(=O)[nH]2)cc1N`, for which the TGI in the assay with CAKI-1 renal, with HOP-62 NSCLC, with MDA-MB-435, in the assay on NCI-H226 lung, in the assay on SF-295 CNS and with SK-MEL-28 melanoma was above 100 µM throughout. The TGI with SK-MEL-5 melanoma and in the assay on SK-OV-3 ovarian was above 100 µM in each case.

With `CCOC(=O)CCC1(C(=O)OC)CCCC1=O` (stereo not drawn), the TGI with HOP-62 NSCLC, with MOLT-4 leukemia, with RXF 393 renal, in the assay with SF-295 CNS, with SK-MEL-28 melanoma and in the assay with SK-MEL-5 melanoma was above 100 µM in each case. In the assay with SK-OV-3 ovarian, this compound came in with a TGI above 100 µM.

On to `O=c1[nH]c(=O)n(C2CC(O)C(CO)O2)cc1C#Cc1ccc(C(F)(F)F)cc1` (stereo not drawn), for which the TGI in the assay on HOP-62 NSCLC, with MOLT-4 leukemia, in the assay on NCI-H226 lung, in the assay on RXF 393 renal, with SF-295 CNS and in the assay with SK-MEL-28 melanoma was above 100 µM in each case. Further, the TGI with SK-MEL-5 melanoma and in the assay on SK-OV-3 ovarian was above 100 µM throughout.

On to `O=C1CCC2(CCC(=O)NC2=O)C(=O)N1`, for which the TGI in the assay on HOP-62 NSCLC, in the assay with MOLT-4 leukemia, in the assay on NCI-H226 lung, in the assay with RXF 393 renal, in the assay on SF-295 CNS and in the assay with SK-MEL-28 melanoma was above 100 µM each time. The TGI with SK-MEL-5 melanoma and with SK-OV-3 ovarian was above 100 µM each time.

Take `O=C1/C(=C/c2cccc(Oc3ccccc3)c2)N=C(c2ccccc2)N1c1nc2ccc(Sc3ccccc3)cc2[nH]1`: the TGI in the assay with CAKI-1 renal was above 100 µM; in the assay with HOP-62 NSCLC it was above 100 µM; in the assay with MDA-MB-435 it was 33.1 µM; in the assay on MOLT-4 leukemia, above 100 µM; in the assay on RXF 393 renal, above 100 µM; in the assay on SF-295 CNS, 53.7 µM. Besides, the TGI in the assay with SK-MEL-28 melanoma is above 100 µM; with SK-MEL-5 melanoma it was 75.3 µM; in the assay on SK-OV-3 ovarian it was above 100 µM.

As to `COc1cc(C2SCC(=O)N2NC(=O)c2ccc(NC(C)=O)cc2)cc(OC)c1OC` (stereo not drawn), the TGI with HOP-62 NSCLC, in the assay with MDA-MB-435, in the assay with MOLT-4 leukemia, in the assay with NCI-H226 lung, in the assay on RXF 393 renal and in the assay with SF-295 CNS was above 100 µM each time. Besides, the TGI in the assay with SK-MEL-28 melanoma, in the assay on SK-MEL-5 melanoma and in the assay on SK-OV-3 ovarian was above 100 µM each time.

Regarding `O=C1NC(=O)/C(=C\c2ccncc2)N1`, the TGI with CAKI-1 renal, with HOP-62 NSCLC, in the assay on MDA-MB-435, with MOLT-4 leukemia, in the assay with NCI-H226 lung and in the assay on SF-295 CNS was above 100 µM each time. In addition, the TGI in the assay with SK-MEL-28 melanoma, in the assay with SK-MEL-5 melanoma and with SK-OV-3 ovarian was above 100 µM in each case.

In the case of `O=C1c2cc3c(cc2CC12Cc1cc4c(cc1C2)CCC4)CCC3`, the TGI in the assay with CAKI-1 renal, in the assay with HOP-62 NSCLC, with MDA-MB-435, in the assay with MOLT-4 leukemia, with RXF 393 renal and in the assay on SF-295 CNS was above 100 µM each time. The TGI with SK-MEL-28 melanoma, with SK-MEL-5 melanoma and in the assay with SK-OV-3 ovarian was above 100 µM each time.

For the compound `C=CCc1c(O)c2ccccc2[nH]c1=O`, the TGI with CAKI-1 renal, in the assay with HOP-62 NSCLC, in the assay on MDA-MB-435, in the assay on MOLT-4 leukemia, with NCI-H226 lung and in the assay with SF-295 CNS was above 100 µM throughout. For the same compound, the TGI in the assay with SK-MEL-28 melanoma and in the assay with SK-MEL-5 melanoma was above 100 µM each time.

As for `CC1=NN(C(=O)CC(=O)Nc2cccc(Cl)c2)C(=O)C1N=Nc1ccc(S(N)(=O)=O)cc1` (stereo not drawn), the TGI with CAKI-1 renal, with HOP-62 NSCLC, in the assay on MOLT-4 leukemia, in the assay with NCI-H226 lung, with RXF 393 renal and with SF-295 CNS was above 100 µM throughout. Further, the TGI in the assay with SK-MEL-28 melanoma, with SK-MEL-5 melanoma and in the assay on SK-OV-3 ovarian was above 100 µM in each case.

`C/C(=N\N(C)C)C(CN(C)C)C(c1ccccc1)c1c(O)c2ccccc2oc1=O` (stereo not drawn): the TGI with MOLT-4 leukemia, in the assay on NCI-H226 lung, with RXF 393 renal, in the assay on SF-295 CNS, in the assay with SK-MEL-28 melanoma and in the assay with SK-MEL-5 melanoma was above 100 µM in each case. Moreover, in the assay on SK-OV-3 ovarian, the TGI is above 100 µM.

With `CC(=O)O[C@]12CCCCCCC1C1(O)C(O)CCC[C@H]12` (stereo partly drawn), the TGI in the assay on HOP-62 NSCLC, with MOLT-4 leukemia, in the assay with NCI-H226 lung, with RXF 393 renal, in the assay on SF-295 CNS and in the assay on SK-MEL-28 melanoma was above 100 µM each time. The TGI in the assay on SK-MEL-5 melanoma and with SK-OV-3 ovarian was above 100 µM throughout.

Regarding `Brc1ccc(N2C[N+](c3ccc(Br)cc3)=NC(c3ccccc3)=N2)cc1`, the TGI in the assay on CAKI-1 renal was 33.3 µM and > 100 µM; in the assay with HOP-62 NSCLC, 31.2 µM and > 100 µM; with MOLT-4 leukemia, 32.5 µM and > 100 µM; in the assay with NCI-H226 lung it was 44.4 µM and > 100 µM; in the assay on RXF 393 renal, 37.7 µM and > 100 µM; in the assay on SF-295 CNS it was 29.1 µM and > 100 µM. In addition, the TGI was 39.2 µM and > 100 µM with SK-MEL-28 melanoma; 29.4 µM and > 100 µM in the assay with SK-MEL-5 melanoma; 34.3 µM and > 100 µM with SK-OV-3 ovarian.
